Reference: patent US11279691B2, “Substituted pyridine and pyrazine compounds as PDE4 inhibitors” (Dart Neuroscience LLC, priority 2013, dated 2022)

What follows are molecules tested against T1, PDE4D3 (Homo sapiens, UniProt Q08499). Conditions: GST-tagged PDE4D3, 200 nM FAM-cAMP, 11-point dose-response; read-out: PD4d3 pEC50 (converted).
T1 construct: GST
Format: biochemical

T1 sequence (Q08499 1-673 isoform Q08499-2): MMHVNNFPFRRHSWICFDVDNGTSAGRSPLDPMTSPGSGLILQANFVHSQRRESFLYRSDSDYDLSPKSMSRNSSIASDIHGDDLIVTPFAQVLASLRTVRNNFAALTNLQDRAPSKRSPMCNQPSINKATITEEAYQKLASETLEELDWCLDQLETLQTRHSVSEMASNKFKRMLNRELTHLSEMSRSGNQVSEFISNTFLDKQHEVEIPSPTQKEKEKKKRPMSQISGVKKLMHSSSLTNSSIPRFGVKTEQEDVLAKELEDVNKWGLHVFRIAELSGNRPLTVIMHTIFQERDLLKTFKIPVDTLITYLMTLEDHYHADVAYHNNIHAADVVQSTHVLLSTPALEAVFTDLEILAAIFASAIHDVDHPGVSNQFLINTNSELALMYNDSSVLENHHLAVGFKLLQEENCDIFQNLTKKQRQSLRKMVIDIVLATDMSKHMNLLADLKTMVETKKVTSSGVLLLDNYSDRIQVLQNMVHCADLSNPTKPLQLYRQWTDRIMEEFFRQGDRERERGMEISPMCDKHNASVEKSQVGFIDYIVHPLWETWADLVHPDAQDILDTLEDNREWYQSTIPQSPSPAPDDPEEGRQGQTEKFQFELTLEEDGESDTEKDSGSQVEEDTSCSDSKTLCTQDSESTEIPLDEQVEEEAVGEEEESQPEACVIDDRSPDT

Q: Which EC50 does the source give for N#CCc1ncc(Cc2cnc(OCC(F)F)c(-c3cccc(Cl)c3)c2)cn1 [Example 348, 2-(5-{[5-(3-Chlorophenyl)-6-(2,2-difluoroethoxy)pyridin-3-yl]methyl}pyrimidin-2-yl)acetonitrile] here?
A: Its EC50 is less than 100 nM.

Q: Which EC50 does the source give for CCOc1cc(-c2cc(Cc3cnc(N)nc3)cnc2OC)ccn1 [Example 349, 5-{[5-(2-Ethoxypyridin-4-yl)-6-methoxypyridin-3-yl]methyl}pyrimidin-2-amine] here?
A: Its EC50 is less than 100 nM.

Q: With CCOc1ncc(Cc2cnc(N)nc2)cc1-c1ccc(F)cc1 [Example 350, 5-{[6-Ethoxy-5-(4-fluorophenyl)pyridin-3-yl]methyl}pyrimidin-2-amine] as the molecule, how does the EC50 read?
A: Its EC50 is less than 100 nM.

Q: Which EC50 does the source give for CCOc1ncc(Cc2cnc(N)nc2)cc1-c1ccc(Cl)cc1 [Example 351, 5-{[5-(4-Chlorophenyl)-6-ethoxypyridin-3-yl]methyl}pyrimidin-2-amine] here?
A: Its EC50 is 100 to 1000 nM.

Q: CCOc1ncc(Cc2cnc(N)nc2)cc1-c1ccc(F)c(C)c1 [Example 352, 5-{[6-Ethoxy-5-(4-fluoro-3-methylphenyl)pyridin-3-yl]methyl}pyrimidin-2-amine] was tested. Which EC50 did it give?
A: The EC50 was less than 100 nM.

Q: For CCOc1ncc(Cc2cnc(N)nc2)cc1-c1ccc(F)c(F)c1 [Example 353, 5-{[5-(3,4-Difluorophenyl)-6-ethoxypyridin-3-yl]methyl}pyrimidin-2-amine], which EC50 is on record?
A: The EC50 was less than 100 nM.

Q: With COc1cc(-c2cc(Cc3cnc(N)nc3)cnc2OC)ccc1F [Example 354, 5-{[5-(4-Fluoro-3-methoxyphenyl)-6-methoxypyridin-3-yl]methyl}pyrimidin-2-amine] as the molecule, how does the EC50 read?
A: Its EC50 is 100 to 1000 nM.

Q: For CCOc1cc(-c2cc(Cc3cnc(N)nc3)cnc2OC)ccc1F [Example 355, 5-{[5-(3-Ethoxy-4-fluorophenyl)-6-methoxypyridin-3-yl]methyl}pyrimidin-2-amine], which EC50 is on record?
A: Its EC50 is 100 to 1000 nM.

Q: COc1ncc(Cc2cnc(N)nc2)cc1-c1cccc(C#N)c1 [Example 356, 3-{5-[(2-Aminopyrimidin-5-yl)methyl]-2-methoxypyridin-3-yl}benzonitrile] was tested. Which EC50 did it give?
A: Its EC50 is 100 to 1000 nM.

Q: With COc1ncc(Cc2cnc(N)nc2)cc1-c1ccc(F)c(C)c1 [Example 357, 5-{[5-(4-Fluoro-3-methylphenyl)-6-methoxypyridin-3-yl]methyl}pyrimidin-2-amine] as the molecule, how does the EC50 read?
A: Its EC50 is 100 to 1000 nM.

Q: For COc1ncc(Cc2cnc(CC#N)nc2)cc1-c1ccc(F)c(F)c1 [Example 358, 2-(5-{[5-(3,4-Difluorophenyl)-6-methoxypyridin-3-yl]methyl}pyrimidin-2-yl)acetonitrile], which EC50 is on record?
A: The EC50 was less than 100 nM.

Q: How did the EC50 turn out when COc1ncc(Cc2cnc(N)nc2)cc1-c1ccc(F)c(Cl)c1 [Example 359, 5-{[5-(3-Chloro-4-fluorophenyl)-6-methoxypyridin-3-yl]methyl}pyrimidin-2-amine] was run?
A: The EC50 was less than 100 nM.

Q: Which EC50 does the source give for COc1ncc(Cc2cnc(N)nc2)cc1-c1ccc(F)cc1 [Example 360, 5-{[5-(4-Fluorophenyl)-6-methoxypyridin-3-yl]methyl}pyrimidin-2-amine] here?
A: The EC50 was less than 100 nM.

Q: Which EC50 does the source give for COc1ncc(Cc2cnc(N)nc2)cc1-c1ccc(Cl)c(F)c1 [Example 361, 5-{[5-(4-Chloro-3-fluorophenyl)-6-methoxypyridin-3-yl]methyl}pyrimidin-2-amine] here?
A: Its EC50 is 100 to 1000 nM.

Q: How did the EC50 turn out when COc1ncc(Cc2cnc(N)nc2)cc1-c1ccc(F)c(F)c1 [Example 362, 5-{[5-(3,4-Difluorophenyl)-6-methoxypyridin-3-yl]methyl}pyrimidin-2-amine] was run?
A: Its EC50 is less than 100 nM.

Q: With COc1ncc(Cc2ccc(CC(N)=O)cc2)cc1-c1ccc(F)c(F)c1 [Example 363, 2-(4-{[5-(3,4-Difluorophenyl)-6-methoxypyridin-3-yl]methyl}phenyl)acetamide] as the molecule, how does the EC50 read?
A: Its EC50 is less than 100 nM.

Q: Which EC50 does the source give for COc1ncc(Cc2ccc(CC(N)=O)cc2)cc1-c1ccc(F)cc1 [Example 364, 2-(4-{[5-(4-Fluorophenyl)-6-methoxypyridin-3-yl]methyl}phenyl)acetamide] here?
A: The EC50 was less than 100 nM.

Q: Which EC50 does the source give for COc1ncc(Cc2ccc(CC(N)=O)cc2)cc1-c1ccc(Cl)c(F)c1 [Example 365, 2-(4-{[5-(4-Chloro-3-fluorophenyl)-6-methoxypyridin-3-yl]methyl}phenyl)acetamide] here?
A: The EC50 was less than 100 nM.

Q: Which EC50 does the source give for COc1ncc(Cc2cnc(CC(N)=O)nc2)cc1-c1ccc(Cl)c(F)c1 [Example 366, 2-(5-{[5-(4-Chloro-3-fluorophenyl)-6-methoxypyridin-3-yl]methyl}pyrimidin-2-yl)acetamide] here?
A: Its EC50 is 100 to 1000 nM.

Q: COc1ncc(Cc2cnc(C(C)(C)C(N)=O)nc2)cc1-c1cccc(Cl)c1 [Example 367, 2-(5-{[5-(3-Chlorophenyl)-6-methoxypyridin-3-yl]methyl}pyrimidin-2-yl)-2-methylpropanamide] was tested. Which EC50 did it give?
A: The EC50 was 100 to 1000 nM.

Q: How did the EC50 turn out when COc1ncc(Cc2cnc(CC(N)=O)nc2)cc1-c1ccc(F)c(F)c1 [Example 368, 2-(5-{[5-(3,4-Difluorophenyl)-6-methoxypyridin-3-yl]methyl}pyrimidin-2-yl)acetamide] was run?
A: The EC50 was less than 100 nM.

Q: COc1ncc(Cc2cnc(CC(N)=O)nc2)cc1-c1cccc(Cl)c1 [Example 369, 2-(5-{[5-(3-Chlorophenyl)-6-methoxypyridin-3-yl]methyl}pyrimidin-2-yl)acetamide] was tested. Which EC50 did it give?
A: The EC50 was less than 100 nM.

Q: NC(=O)Cc1ncc(Cc2cnc(OCC(F)(F)F)c(-c3cccc(Cl)c3)c2)cn1 [Example 370, 2-(5-{[5-(3-Chlorophenyl)-6-(2,2,2-trifluoroethoxy)pyridin-3-yl]methyl}pyrimidin-2-yl)acetamide] was tested. Which EC50 did it give?
A: Its EC50 is 100 to 1000 nM.

Q: NC(=O)Cc1ncc(Cc2cnc(OCC(F)F)c(-c3cccc(Cl)c3)c2)cn1 [Example 371, 2-(5-{[5-(3-Chlorophenyl)-6-(2,2-difluoroethoxy)pyridin-3-yl]methyl}pyrimidin-2-yl)acetamide] was tested. Which EC50 did it give?
A: Its EC50 is less than 100 nM.

Q: How did the EC50 turn out when NC(=O)Cc1ncn(Cc2cnc(OC(F)F)c(-c3cccc(Cl)c3)c2)n1 [Example 372, 2-(1-{[5-(3-Chlorophenyl)-6-(difluoromethoxy)pyridin-3-yl]methyl}-1H-1,2,4-triazol-3-yl)acetamide] was run?
A: The EC50 was less than 100 nM.

Q: With COc1ncc(Cc2cnc(C(N)=O)nc2)cc1-c1ccc(F)c(F)c1 [Example 373, 5-{[5-(3,4-Difluorophenyl)-6-methoxypyridin-3-yl]methyl}pyrimidine-2-carboxamide] as the molecule, how does the EC50 read?
A: Its EC50 is 100 to 1000 nM.

Q: For COc1ncc(Cc2cnc(C(N)=O)nc2)cc1-c1ccc(F)cc1 [Example 374, 5-{[5-(4-Fluorophenyl)-6-methoxypyridin-3-yl]methyl}pyrimidine-2-carboxamide], which EC50 is on record?
A: Its EC50 is 100 to 1000 nM.

Q: How did the EC50 turn out when COc1ncc(Cc2cnc(NCCO)nc2)cc1-c1ccc(F)c(F)c1 [Example 375, 2-[(5-{[5-(3,4-Difluorophenyl)-6-methoxypyridin-3-yl]methyl}pyrimidin-2-yl)amino]ethan-1-ol] was run?
A: Its EC50 is less than 100 nM.

Q: For COc1ncc(Cc2cnc(CO)cn2)cc1-c1cccc(Cl)c1 [Example 376, (5-{[5-(3-Chlorophenyl)-6-methoxypyridin-3-yl]methyl}pyrazin-2-yl)methanol], which EC50 is on record?
A: The EC50 was less than 100 nM.

Q: For COc1ncc(Cc2cnc(C)cn2)cc1-c1cccc(Cl)c1 [Example 377, 2-{[5-(3-Chlorophenyl)-6-methoxypyridin-3-yl]methyl}-5-methylpyrazine], which EC50 is on record?
A: The EC50 was less than 100 nM.

Q: How did the EC50 turn out when COc1ncc(Cc2ccc(C#N)cn2)cc1-c1cccc(Cl)c1 [Example 378, 6-{[5-(3-Chlorophenyl)-6-methoxypyridin-3-yl]methyl}pyridine-3-carbonitrile] was run?
A: Its EC50 is 100 to 1000 nM.

Q: Which EC50 does the source give for COc1ncc(Cc2cnc(N)cn2)cc1-c1ccc(Cl)c(F)c1 [Example 379, 5-{[5-(4-Chloro-3-fluorophenyl)-6-methoxypyridin-3-yl]methyl}pyrazin-2-amine] here?
A: Its EC50 is 100 to 1000 nM.

Q: COc1ncc(Cn2nnnc2C)cc1-c1cccc(Cl)c1 [Example 380, 3-(3-Chlorophenyl)-2-methoxy-5-[(5-methyl-1H-1,2,3,4-tetrazol-1-yl)methyl]pyridine] was tested. Which EC50 did it give?
A: The EC50 was less than 100 nM.

Q: COc1ncc(Cn2nnc(CO)n2)cc1-c1ccc(F)cc1 [Example 381, (2-{[5-(4-Fluorophenyl)-6-methoxypyridin-3-yl]methyl}-2H-1,2,3,4-tetrazol-5-yl)methanol] was tested. Which EC50 did it give?
A: Its EC50 is 100 to 1000 nM.

Q: How did the EC50 turn out when COc1ncc(Cn2nnnc2CO)cc1-c1ccc(F)cc1 [Example 382, (1-{[5-(4-Fluorophenyl)-6-methoxypyridin-3-yl]methyl}-1H-1,2,3,4-tetrazol-5-yl)methanol] was run?
A: Its EC50 is 1000 to 10000 nM.

Q: How did the EC50 turn out when COc1ncc(Cn2nnc(CO)n2)cc1-c1ccc(F)c(F)c1 [Example 383, (2-{[5-(3,4-Difluorophenyl)-6-methoxypyridin-3-yl]methyl}-2H-1,2,3,4-tetrazol-5-yl)methanol] was run?
A: The EC50 was 100 to 1000 nM.

Q: Which EC50 does the source give for COc1ncc(Cn2nnnc2CO)cc1-c1ccc(F)c(F)c1 [Example 384, (1-{[5-(3,4-Difluorophenyl)-6-methoxypyridin-3-yl]methyl}-1H-1,2,3,4-tetrazol-5-yl)methanol] here?
A: The EC50 was 1000 to 10000 nM.

Q: With COc1ncc(Cn2nnc(CO)n2)cc1-c1ccc(Cl)c(F)c1 [Example 385, (2-{[5-(4-Chloro-3-fluorophenyl)-6-methoxypyridin-3-yl]methyl}-2H-1,2,3,4-tetrazol-5-yl)methanol] as the molecule, how does the EC50 read?
A: Its EC50 is 100 to 1000 nM.

Q: With COc1ncc(Cn2nnnc2CO)cc1-c1ccc(Cl)c(F)c1 [Example 386, (1-{[5-(4-Chloro-3-fluorophenyl)-6-methoxypyridin-3-yl]methyl}-1H-1,2,3,4-tetrazol-5-yl)methanol] as the molecule, how does the EC50 read?
A: Its EC50 is 1000 to 10000 nM.

Q: COc1ncc(Cn2nnnc2CO)cc1-c1cccc(Cl)c1 [Example 387, (1-{[5-(3-Chlorophenyl)-6-methoxypyridin-3-yl]methyl}-1H-1,2,3,4-tetrazol-5-yl)methanol] was tested. Which EC50 did it give?
A: Its EC50 is 1000 to 10000 nM.

Q: COc1ncc(Cn2nnc(CO)n2)cc1-c1cccc(Cl)c1 [Example 388, (2-{[5-(3-Chlorophenyl)-6-methoxypyridin-3-yl]methyl}-2H-1,2,3,4-tetrazol-5-yl)methanol] was tested. Which EC50 did it give?
A: The EC50 was 100 to 1000 nM.

Q: Which EC50 does the source give for COc1ncc(Cc2cnc(N3CCC(O)C3)nc2)cc1-c1cccc(Cl)c1 (stereo not shown) [Example 389, 1-(5-{[5-(3-Chlorophenyl)-6-methoxypyridin-3-yl]methyl}pyrimidin-2-yl)pyrrolidin-3-ol] here?
A: The EC50 was 100 to 1000 nM.

Q: How did the EC50 turn out when COc1ncc(Cc2cnc(N3CC(O)C3)nc2)cc1-c1cccc(Cl)c1 [Example 390, 1-(5-{[5-(3-Chlorophenyl)-6-methoxypyridin-3-yl]methyl}pyrimidin-2-yl)azetidin-3-ol] was run?
A: Its EC50 is 100 to 1000 nM.
